Assays:
Human PARP-1 enzyme = Human PARP-1 enzyme (Homo sapiens (Human), UniProt P09874); assay: In vitro Scintillation Proximity Assay (SPA) for PARP-1 inhibitory activity; assay type: biochemical; settings: nicked DNA activated PARP-1, [3H]-NAD+, biotinylated histones
Procedure: C.1.In Vitro Scintillation Proximity Assay (SPA) for PARP-1 Inhibitory Activity
Compounds of the present invention were tested in an in vitro assay based on SPA technology (proprietary to GE healthcare).
In principle, the assay relies upon the well established SPA technology for the detection of poly(ADP-ribosyl)ation of biotinylated target proteins, i.e histones. This ribosylation is induced using nicked DNA activated PARP-1 enzyme and [^3H]-nicotinamide adenine dinucleotide ([^3H]-NAD^+) as ADP-ribosyl donor.
Histones (type II-A, supplier: Sigma) were biotinylated using the biotinylation kit of Amersham and stored aliquoted at −20° C. A stock solution of 100 mg/ml SPA poly(vinyl toluene) (PVT) beads (supplier: Amersham) was made in PBS. A stock solution of 61.6 nM […] was made by adding [^3H]-NAD^+ (0.1 mCi/ml, supplier: Perkin Elmer) to incubation buffer (50 mM Tris/HCl, pH 8; 0.2 mM DTT; 4 mM MgCl2). A solution of 4 mM NAD^+ (supplier: Sigma) was made. Human PARP-1 enzyme was obtained from Trevigen. Biotinylated histones and PVT-SPA beads were mixed and pre-incubated for 30 minutes at room temperature. PARP-1 enzyme (concentration was lot dependent) was mixed with the nicked DNA and the mixture was pre-incubated for 30 minutes at 4° C. Equal parts of this histones/PVT-SPA beads solution and PARP-1 enzyme/DNA solution were mixed and 75 μl of this mixture together with 1 μl of compound in DMSO and 25 μl of [^3H]-NAD^+was added per well into a 96-well microtiterplate. The final concentrations in the incubation mixture were 2 μg/ml for the biotinylated histones, 2 mg/ml for the PVT-SPA beads, 0.25 μg/ml for the nicked DNA and between 0.1-0.2 μg/ml for the PARP-1 enzyme. After incubation of the mixture for 20 minutes at room temperature, the reaction was terminated by adding 100 μl of 4 mM NAD^+ in water (final concentration 2 mM) and plates were mixed. The beads were sedimented by centrifugation (10 min, 800 rpm) and plates transferred to a TopCountNXT™ (Packard) for scintillation counting, values were expressed as counts per minute (cpm). For each experiment, controls (containing PARP-1 enzyme and DMSO without compound), a blank incubation (containing DMSO but no PARP-1 enzyme, no DNA or compound) and samples (containing PARP-1 enzyme, DNA and compound dissolved in DMSO) were run in parallel. All compounds tested were dissolved and eventually further diluted in DMSO. A dose-response curve was made wherein the compounds were tested at concentrations between 10^−5M and 3×10^−9M. In each test, the blank value was subtracted from both the control and the sample values. The control sample represented maximal PARP-1 enzyme activity. For each sample, the amount of cpm was expressed as a percentage of the mean cpm value of the controls. […] Herein the effects of test compounds are expressed as pIC50 (the negative log value of the IC50-value). As a reference compound, 4-amino-1,8-naphthalimide was included to validate the SPA assay.

TANK-2 enzyme = TANK-2 enzyme (Homo sapiens (Human), UniProt Q9H2K2); assay: In vitro Scintillation Proximity Assay (SPA) for TANK-2 inhibitory activity; assay type: biochemical; settings: auto-poly(ADP-ribosyl)ation, [3H]-NAD+, Ni flash plates (96 or 384 well)
Procedure: C.2.In Vitro Scintillation Proximity Assay (SPA) for TANK-2 Inhibitory Activity
Compounds of the present invention were tested in an in vitro assay based on SPA technology with Ni Flash plates (96 or 384 well).
In principle, the assay relies upon SPA technology for the detection of auto-poly(ADP-ribosyl)ation of TANK-2 protein using [^3H]-nicotinamide adenine dinucleotide ([^3H]-NAD^+) as ADP-ribosyl donor.
A stock solution of 100 nM [^3H]-NAD^+/NAD (0.1 mCi/ml, supplier: Perkin Elmer) and 25 μM NAD (Sigma) was made in assay buffer (60 mM Tris/HCl, pH 7.4; 0.9 mM DTT; 6 mM MgCl2). The TANK-2 enzyme was produced as described in EP1238063. 60 μl of assay buffer, together with 1 μl of compound in DMSO, 20 μl of [^3H]-NAD^+/NAD and 20 μl of TANK-2 enzyme (final concentration 8 μg/ml) was added per well into a 96-well Ni-coated flash plate (Perkin Elmer). After incubation of the mixture for 120 minutes at room temperature, the reaction was terminated by adding 60 μl of stopsolution (42.6 mg NAD in 6 ml H2O). The plates were covered with a plate sealer and placed in a TopCountNXT™ (Packard) for scintillation counting. Values were expressed as counts per minute (cpm). For each experiment, controls (containing TANK-2 enzyme and DMSO without compound), a blank incubation (containing DMSO but no TANK-2 enzyme or compound) and samples (containing TANK-2 enzyme and compound dissolved in DMSO) were run in parallel. All compounds tested were dissolved and eventually further diluted in DMSO. In first instance, compounds were tested at a concentration of 10^−5M. […] In each test, the blank value was subtracted from both the control and the sample values. The control sample represented maximal TANK-2 enzyme activity. For each sample, the amount of cpm was expressed as a percentage of the mean cpm value of the controls. […] Herein the effects of test compounds are expressed as pIC50 (the negative log value of the IC50-value). As reference compounds, 3-aminobenzamide and 4-amino-1,8-naphtalimide were included to validate the SPA assay. Herein the assay was described using 96-well plates. In the assay using 384-well plates the same final concentrations were used and volumes were adapted.

[1] = system: Human colon carcinoma HCT116 cells; assay: Detection of antiproliferative activity (Alamar Blue assay); assay type: cell-based; settings: HCT-116, 96 h, 4-day incubation, read-out: Cellular assay HCT116 pIC50 (converted)
Procedure: Example C.4 Detection of Antiproliferative Activity
Human colon carcinoma HCT116 cells obtained from the ATCC were cultured in McCoy's 5A medium supplemented with 2 mM L-Glutamine, 50 μg/ml gentamicin and 10% heat inactivated fetal calf serum.
Reagents used in the Alamar Blue Assay
Resazurin was purchased from Aldrich (Prod. No. 199303). Potassium ferrocyanide, potassium ferricyanide, KH2PO4 and K2HPO4 were purchased from Sigma (Prod. Nos. P9387, P8131, P5655 and P8281, respectively).
Potassium Phosphate Buffer 0.1 M (PPB) was made as follows: 2.72 gram KH2PO4 and 13.86 gram K2HPO4 were dissolved in 500 ml milli-Q H2O, the pH was adjusted to pH 7.4 and the volume was brought to 1 liter with milli-Q H2O; the buffer was filter sterilised and stored at room temperature. Resazurin stock solution (PPB-A) was prepared fresh by dissolving 45 mg resazurin in 15 ml PBS. 30 mM potassium ferricyanide (PPB-B) was prepared by dissolving 0.987 gram potassium ferricyanide in 100 ml PPB. 30 mM potassium ferrocyanide (PPB-C) was prepared by dissolving 1.266 gram potassium ferrocyanide in 100 ml PPB.
Mixture of PPB-A, PPB-B and PPB-C was prepared by mixing equal volumes of the respective solutions. Resazurin work solution (herein termed “Alamar Blue” solution) was prepared by diluting said mixture 20× (vol/vol) in PPB and filter sterilising; the Alamar Blue solution could be kept at 4° C. for a maximum of 2 weeks.
Procedure of the Alamar Blue Assay
For experiments in 384 wells plates the cells were seeded at a density of 4.5×10^3 cells/ml in Falcon 384-well culture plates (Life Technologies, Merelbeke, Belgium), black with clear bottom, in 45 μl culture medium. Cells were allowed to adhere to plastic for 24 hours. The tested compound was pre-diluted (1/50 in culture medium) and 5 μl pre-diluted compound was added to the wells. Following 4-day incubation, 10 μl of the Alamar Blue solution was added to each well and the cells were further incubated for 4 hours (HCT116) or 24 hours (PC-3) at 37° C. The fluorescence intensity was measured for each well on a Fluorescence plate reader (Fluorskan, Labsystems, 540 nm excitation and 590 nm emission)
The antiproliferative activity was calculated as percentage of remaining viable cells in treated versus control (untreated cells) conditions. Within an experiment, the result for each experimental condition is the mean of 3 replicate wells. When appropriate, the experiments were repeated to establish full concentration-response curves. […] Herein the effects of tested compounds are expressed as pIC50 (the negative log value of the IC50 value) (see Table 3).

Sequence of TANK-2 enzyme (Q9H2K2 whole entry): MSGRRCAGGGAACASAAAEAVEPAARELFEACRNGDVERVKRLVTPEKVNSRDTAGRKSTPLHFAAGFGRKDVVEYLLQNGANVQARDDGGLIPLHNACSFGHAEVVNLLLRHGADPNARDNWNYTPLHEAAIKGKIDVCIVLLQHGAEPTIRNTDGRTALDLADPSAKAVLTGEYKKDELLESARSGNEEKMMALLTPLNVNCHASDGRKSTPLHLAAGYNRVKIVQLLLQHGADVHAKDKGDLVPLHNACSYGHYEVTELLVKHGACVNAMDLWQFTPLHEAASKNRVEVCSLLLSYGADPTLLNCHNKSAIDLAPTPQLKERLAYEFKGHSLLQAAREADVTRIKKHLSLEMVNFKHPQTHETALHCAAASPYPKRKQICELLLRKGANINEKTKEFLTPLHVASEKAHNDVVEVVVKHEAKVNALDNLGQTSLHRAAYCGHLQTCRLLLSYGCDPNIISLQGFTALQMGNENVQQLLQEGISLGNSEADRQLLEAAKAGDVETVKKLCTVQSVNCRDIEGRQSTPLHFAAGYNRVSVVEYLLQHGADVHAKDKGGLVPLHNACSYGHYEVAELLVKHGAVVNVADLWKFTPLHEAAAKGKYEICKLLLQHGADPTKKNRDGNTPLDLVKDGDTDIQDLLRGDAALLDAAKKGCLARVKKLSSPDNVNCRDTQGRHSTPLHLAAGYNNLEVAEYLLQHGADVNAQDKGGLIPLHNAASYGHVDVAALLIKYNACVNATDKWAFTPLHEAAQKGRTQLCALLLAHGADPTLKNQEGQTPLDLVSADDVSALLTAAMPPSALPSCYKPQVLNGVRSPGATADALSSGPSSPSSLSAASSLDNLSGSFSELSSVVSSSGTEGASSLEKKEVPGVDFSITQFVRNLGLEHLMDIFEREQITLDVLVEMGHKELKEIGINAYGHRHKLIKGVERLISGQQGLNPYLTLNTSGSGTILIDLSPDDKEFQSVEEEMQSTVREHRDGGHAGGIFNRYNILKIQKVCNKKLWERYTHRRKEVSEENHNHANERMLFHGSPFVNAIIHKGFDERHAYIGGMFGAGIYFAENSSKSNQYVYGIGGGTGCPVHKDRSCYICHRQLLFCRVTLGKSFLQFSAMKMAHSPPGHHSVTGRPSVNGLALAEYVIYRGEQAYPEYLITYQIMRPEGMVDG
Sequence of Human PARP-1 enzyme (P09874 whole entry): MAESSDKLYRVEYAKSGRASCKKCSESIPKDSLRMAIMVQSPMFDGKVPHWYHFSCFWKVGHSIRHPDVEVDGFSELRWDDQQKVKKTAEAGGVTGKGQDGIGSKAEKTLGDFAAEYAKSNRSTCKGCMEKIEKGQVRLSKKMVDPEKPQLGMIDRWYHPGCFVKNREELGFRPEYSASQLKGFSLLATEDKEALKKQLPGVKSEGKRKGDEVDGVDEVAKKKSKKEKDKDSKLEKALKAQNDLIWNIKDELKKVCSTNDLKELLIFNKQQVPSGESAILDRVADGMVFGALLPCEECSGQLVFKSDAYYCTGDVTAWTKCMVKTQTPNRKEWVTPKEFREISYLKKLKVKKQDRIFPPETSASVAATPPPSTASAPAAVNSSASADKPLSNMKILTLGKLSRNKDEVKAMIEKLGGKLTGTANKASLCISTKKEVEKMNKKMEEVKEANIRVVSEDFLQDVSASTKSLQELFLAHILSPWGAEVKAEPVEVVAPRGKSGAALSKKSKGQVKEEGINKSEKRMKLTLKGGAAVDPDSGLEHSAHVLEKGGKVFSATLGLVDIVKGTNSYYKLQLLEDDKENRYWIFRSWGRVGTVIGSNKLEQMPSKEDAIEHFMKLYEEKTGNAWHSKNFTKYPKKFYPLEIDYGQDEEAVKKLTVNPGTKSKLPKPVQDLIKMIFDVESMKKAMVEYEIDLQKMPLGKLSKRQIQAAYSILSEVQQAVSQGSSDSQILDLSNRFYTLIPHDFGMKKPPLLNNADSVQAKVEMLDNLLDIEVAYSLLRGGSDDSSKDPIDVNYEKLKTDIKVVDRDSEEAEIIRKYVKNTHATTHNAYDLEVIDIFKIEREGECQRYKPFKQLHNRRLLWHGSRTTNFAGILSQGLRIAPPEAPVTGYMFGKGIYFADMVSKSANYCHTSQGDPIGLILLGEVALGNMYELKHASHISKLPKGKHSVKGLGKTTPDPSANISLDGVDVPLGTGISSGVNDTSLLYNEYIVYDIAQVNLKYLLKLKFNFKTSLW

SMILES	in vitro SPA assay PARP-1 pIC50 (Human PARP-1 enzyme)	in vitro SPA assay TANK-2 pIC50 (TANK-2 enzyme)	IC50 [1] [nM]	IC50 (Human PARP-1 enzyme; read-out: in vitro SPA assay PARP-1 pIC50 (converted)) [nM]	IC50 (TANK-2 enzyme; read-out: in vitro SPA assay TANK-2 pIC50 (converted)) [nM]
CC(C#N)(Cc1cccc(CN)c1)c1ccc2c3c(c(=O)[nH]c2c1)CCCC3 (stereo not drawn) [Co. No. 16]	6.10	7.42	417		
CN(Cc1ccc(C#N)cc1)CC(C)(C#N)c1ccc2c3c(c(=O)[nH]c2c1)CCCC3 (stereo not drawn) [Co. No. 19]		7.19	589		
Cn1nc(CC(C)(C#N)c2ccc3c4c(c(=O)[nH]c3c2)CCCC4)c2ccccc21 (stereo not drawn) [Co. No. 12]	7.34	7.37	178		
CC(C#N)(Cc1cccc(CO)c1)c1ccc2c3c(c(=O)[nH]c2c1)CCCC3 (stereo not drawn) [Co. No. 15]	7.48	7.39	229		
COC(=O)c1cccc(CC(C)(C#N)c2ccc3c4c(c(=O)[nH]c3c2)CCCC4)c1 (stereo not drawn) [Co. No. 14]			105	97.7	63.1
C[C@](C#N)(Cc1cccc(F)c1)c1ccc2c3c(c(=O)[nH]c2c1)CCCC3 (single isomer, unassigned) [Co. No. 5b]	7.44	7.47	97.7		
CC(C#N)(Cc1cccc(OC(F)(F)F)c1)c1ccc2c3c(c(=O)[nH]c2c1)CCCC3 (stereo not drawn) [Co. No. 10]	6.66	7.23	186		
CN(CC(C)(C#N)c1ccc2c3c(c(=O)[nH]c2c1)CCCC3)C(=O)c1ccccc1 (stereo not drawn) [Co. No. 18]			> 10000		
C[C@](C#N)(Cc1ccccc1)c1ccc2c3c(c(=O)[nH]c2c1)CCCC3 (single isomer, unassigned) [Co. No. 3]	7.26	7.48	158		
C[C@@](C#N)(Cc1ccccc1)c1ccc2c3c(c(=O)[nH]c2c1)CCCC3 (single isomer, unassigned) [Co. No. 2]	7.33	7.43	> 10000		
C[C@@](C#N)(Cc1cccc(F)c1)c1ccc2c3c(c(=O)[nH]c2c1)CCCC3 (single isomer, unassigned) [Co. No. 5a]	7.80	7.40	> 10000		
COc1cccc(CC(C)(C#N)c2ccc3c4c(c(=O)[nH]c3c2)CCCC4)c1 (stereo not drawn) [Co. No. 11]	7.06	7.45	155		
CC(C#N)(Cc1cc(Cl)nc(Cl)c1)c1ccc2c3c(c(=O)[nH]c2c1)CCCC3 (stereo not drawn) [Co. No. 9]	7.20	6.35	158		
Cn1c(CC(C)(C#N)c2ccc3c4c(c(=O)[nH]c3c2)CCCC4)nc2ccccc21 (stereo not drawn) [Co. No. 13]	7.38	7.37	269		

Source: patent publication US9598396B2, “Tetrahydrophenanthridinones and tetrahydrocyclopentaquinolinones as PARP and tubulin polymerization inhibitors” (Janssen Pharmaceutica NV, priority 2008, dated 2017)
